Series [1] is described as follows: refreshing effect in a tobacco flavouring composition. In kind it is in vivo. Conditions: approximately 0.05 g per kilogram of tobacco. The text has this:
Approximately 0.05 g of (−)-(1R,3R,4S)-3-hydroxy-p-menthane-3-[…] is used per kilogram of tobacco.

The conditions of series [2]: cited from earlier work; for refreshing effect: prior art.
Series [3] can be described thus: refreshing effect in boiled sweets. The note with it: 0.2 g per kilogramme of final product. Format: in vivo. The procedure:
A solution of saccharose (350 g) in water (110 g) is prepared which is boiled at 107° C. 150 g of glucose syrup is added and boiled at 148° C. The flavouring, citric acid and colouring agent are added at a temperature of approximately 120°, and 0.2 g of (−)-(1R,3R,4S)-3-hydroxy-p-menthane-3-methanol is added per kilogramme of final product.

Series [4] is described as follows: refreshing effect in a mouthwash flavouring composition. Format: in vivo. The note with it: approximately 0.2 g per litre of prepared mouthwash. An excerpt:
Approximately 0.2 g of (−)-(1R,3R,4S)-3-hydroxy-p-menthane-3-methanol is used per litre of prepared mouthwash.

Series [5] in a line: hydrophilic nature of the compound. In kind it is physicochemical.
A short description of series [6]: organoleptic evaluation of the compounds: refreshing effect, bitterness, odour. In kind it is in vivo. Conditions: sensation of freshness, intensity in words.
The conditions of series [7]: prior art; cited from earlier work.

As usually defined, the melting point is the temperature of the solid-liquid transition.

Structures are written as SMILES. Where two headings read alike, the source gives them in different places.

As to `CC(C)[C@@H]1CC[C@@H](C)C[C@@]1(O)CCO` [1a, (−)-(1R,3R,4S)-3-hydroxy-p-menthane-3-ethanol], the melting point lay in the range of 80 to 82 °C. For the same compound, in series [1], the refreshing effect entry is recorded as “A refreshing effect is obtained”.

The compound `CC(C)[C@@H]1CC[C@@H](C)C[C@]1(O)CCO` [1b, (−)-(1R,3S,4S)-3-hydroxy-p-menthane-3-ethanol] showed a melting point of 84 to 86 °C.

For `CNC(=O)C(C)(C(C)C)C(C)C` [2-isopropyl-N,2,3-trimethylbutyramide], the refreshing effect entry in series [2] is on record as “very active”.

With `CC(C)[C@@H]1CC[C@@H](C)C[C@]1(O)CO` [2a, (−)-(1R,3R,4S)3-hydroxy-p-menthane-3-methanol], the melting point fell in the range of 80 to 82 °C. In addition, the refreshing effect entry in series [3] is “A very distinct refreshing effect is obtained”. Also, the refreshing effect result in series [4] is recorded as “A refreshing effect is obtained”.

As for `CC(C)[C@@H]1CC[C@@H](C)C[C@@]1(O)CO` [2b, (−)-(1R,3S,4S)-3-hydroxy-p-menthane-3-methanol], the melting point fell in the range of 48 to 50 °C.

For `CC1=C(N2CCCC2)C(=O)OC1` [4-methyl-3-(1-pyrrolidinyl)-2[5H]furanone], the refreshing effect result in series [2] is “very intense refreshing effect”.

In the case of `CC(C)[C@@H]1CC[C@@H](C)C[C@]1(O)C(O)CO` (stereo partly drawn) [compound 3, (1R,3R,4S)-3-hydroxy-p-menthane-3-(ethane-1,2-diol)], in series [5], the hydrophilic nature entry is listed as “hydrophilic”. The refreshing effect result in series [6] is given as “intense”.

`CC(C)[C@@H]1CC[C@@H](C)C[C@@]1(O)C(C)CO` (some centres unmarked) [compound 4]: the refreshing effect entry in series [6] was “reduced intensity”.

In the case of `CC(O)C[C@]1(O)C[C@H](C)CC[C@H]1C(C)C` (some centres unmarked) [compound 5], the refreshing effect entry in series [6] is reported as “reduced intensity”.

In the case of `CC(C)[C@@H]1CC[C@@H](C)C[C@@]1(O)CC(C)(C)O` [compound 6], the refreshing effect result in series [6] is on record as “reduced intensity”.

As to `CC(C)[C@@H]1CC[C@@H](C)C[C@]1(CO)OCCO` [compound 11], in series [6], the refreshing effect entry is on record as “not endowed with a particularly intense refreshing effect”.

Turning to `CC(C)[C@@H]1CC[C@@H](C)C[C@H]1O` [l-menthol], the burning sensation result in series [2] (when used at a high concentration) is “can cause a burning sensation”. The volatility entry in series [7] is listed as “too high volatility”.

Values taken from US7816566B2, “p-Menthan-3-ol alkylated derivatives and their use as refreshing agents” (Robertet S.A., priority 2004, dated 2010).
